Data set [1] is described as follows: Lipophilicity (logP) by RP-TLC. The following applies: RP-18 F254S TLC plates. The source says:
Lipophilicity is one of the most important physicochemical properties in pharmaceutical research. It can be considered a key determinant of the pharmacokinetic properties of a drug. It is commonly measured by the partition coefficient between water and n-octanol, being expressed as logP [14]. […] Knowledge of the partition coefficient is valuable: it is frequently used in structure–activity relationship (SAR) and quantitative structure–activity relationship (QSAR) studies. The experimental lipophilicity of the synthesized compounds, viz. benzylideneflavanones, benzylidenechromanones and spiropyrazolines, was determined using RP-TLC. […] It is important to examine the relationship between structure of the compound and its lipophilicity and cytotoxicity.
The RP-TLC experiments were performed on TLC plates (5 × 10 cm) RP-18 F254S (Merck, Darmstadt, Germany). The synthesized compounds were dissolved in N,N-dimethylformamide DMF (2 mg/mL). […] A DMF-water solvent system was used as mobile phase. […] All experiments were performed at room temperature. The logP parameter was calculated using the equation from the calibration curve.

Data set [2] is described as follows: Red blood cell lysis assay. In kind it is cell-based. The following applies: human, 2% red blood cell suspension, 2% RBC suspension, 37 °C, Triton X-100 = 100%, read-out: percentage of hemolysis. The source says: (§1) All synthesized compounds with potential biological activity have to be tested for blood compatibility since xenobiotics will react with blood cells upon administration. In this case, biocompatibility refers to the quantification of cellular and plasma components of the blood. The measurement of the integrity of RBC membrane is considered a simple and reliable method for estimating hemocompatibility.
(§2) The studies on biological material were approved by the Bioethics Committee of the Medical University of Lodz, Poland (RNN/109/16/KE). The blood samples were obtained from healthy donors at the Blood Donation Centre in Lodz. The procedure for plasma preparation for erythrotoxicity studies was described previously. The influence of synthesized compounds as well as two reference compounds flavanone and chromanone on RBC membrane integrity was performed by lysis assay which was conducted according to our previous protocol. Briefly, 2% RBC suspension in 0.9% NaCl was incubated at 37 °C for one hour with the tested compounds at various concentrations corresponding to their activity towards cancer cell lines or 0.9% NaCl (control). The samples were centrifuged at 3000 rpm for 10 min and the absorbance of the supernatant was measured at 550 nm. The results are presented as percentage of haemolysis where a sample containing 10 μL of 2.0% v/v Triton X-100 was regarded as a positive control contributing to 100% of haemolysis. A sample containing saline solution represented spontaneous haemolysis of RBCs (control). The studies were performed on four biological samples obtained from different blood donors (n = 4). The results are presented as mean ± standard deviation (SD). The coefficient of variability for the method was counted: W = 9.51%, n = 5.

Data set [3] concerns red blood cells (RBC membrane integrity). Nature of the data set: Red blood cell lysis assay. The class given is cell-based. The settings on record: 2% RBC suspension, 37 °C, 1 h.
Excerpt: as §1, §2

A further data set concerns NALM-6 cells. Nature of the data set: MTT cytotoxicity assay, NALM-6. The settings on record: Homo sapiens, 46 h + 2 h incubation. The class given is cell-based, human. The protocol: (§3) The first stage of the study used the MTT viability test to determine the cytotoxicity of ten compounds, i.e., 3-arylidenechromanone, 3-arylideneflavanone, spirochromanone and spiro- flavanone analogues, against four human cancer cell lines: HL-60, NALM-6, WM-115 and COLO-205.
(§4) Cytotoxicity was tested against human skin melanoma cells (WM-115, ECACC, Salisbury, UK), two human leukemia cell lines, viz. promyelocytic leukemia (HL-60) and lymphoblastic leukemia (NALM-6), and human colon adenocarcinoma cells (COLO-205). The cell lines COLO-205, WM-115 and HL-60 used in this work came from the ATCC American Type Culture Collection (Manassas, VA, USA), whereas the NALM-6 cell line was purchased from the German Collection of Microorganisms and Cell Cultures (Braunschweig, Germany). The leukaemia cells and colon adenocarcinoma were cultured in RPMI 1640 medium (Invitrogen, Grand Island, NY, USA) supplemented with 10% fetal bovine serum (FBS; Invitrogen) and gentamicin (25 µg/mL; KRKA, Novo Mesto, Slovenia). For melanoma WM-115 cells, Dulbecco’s minimal essential medium (DMEM; Invitrogen) was used. All cell lines were cultured at 37 °C in a humidified atmosphere of 5% CO2 in air.
(§5) For all experiments, the studied compounds were dissolved in DMSO (Sigma-Aldrich) and were further diluted in culture medium to obtain <0.1% DMSO concentration. In each experiment, controls with and without 0.1% DMSO were performed. The cytotoxicity of all compounds and of the reference compounds 4-chromanone and 3-benzylideneflavanone was determined by the MTT assay, i.e., 3-(4,5-dimethylthiazol-2-yl)-2,5-diphenyltetrazolium bromide (Sigma, St. Louis, MO, USA), which measures cellular dehydrogenase activity. Exponentially growing cells were seeded a day before the experiment onto a 96-well microplates (Nunc, Roskilde, Denmark) at a density up to 6–8 × 10^3 cells/well (depending on the cell line). Subsequently, various concentrations of the studied compounds freshly prepared in DMSO and diluted with complete culture medium were added. All compounds were tested for their cytotoxicity at a final concentration of 10^−7–10^−3 M. After 46 h of incubation with the studied compounds, the cells were treated with the MTT reagent and incubation was continued for another two hours. MTT – formazan crystals were dissolved in 20% sodium dodecyl sulphate (SDS, Sigma-Aldrich) and 50% DMF (Sigma-Aldrich) at pH 4.7; following this, absorbance was read at 570 nm on a multifunctional Victor ELISA-plate reader (Perkin Elmer, Turku, Finland). The IC50 values, i.e., the concentration of the test compound required to reduce the cell survival fraction to 50% of controls, were calculated from concentration-response curves and used as a measure of the sensitivity of the cells to a given treatment. As a control, cultured cells were grown in the absence of drugs. The data points represent the means of at least five to ten repeats ± standard deviation (S.D.).

The next data set has as its system WM-115 cells. Briefly: MTT cytotoxicity assay, WM-115. In kind it is cell-based, human. The following applies: Homo sapiens, WM-115, 48 h, MTT, 46 h + 2 h incubation. On the procedure: as §3, §4, §5
For orientation: Tetrazolium assays rely on reduction of a dye to a coloured formazan, in cell work by metabolically active cells.

A further data set concerns HL-60 cells. Nature of the data set: MTT cytotoxicity assay, HL-60. The class given is cell-based, human. The settings on record: for IC50: Homo sapiens, 46 h + 2 h incubation. The protocol:
as §3, §4, §5

The subject of another data set is COLO-205 cells. Briefly: MTT cytotoxicity assay, COLO-205. The class given is cell-based, human. The following applies: Homo sapiens, COLO 205, 48 h, 46 h + 2 h incubation. On the procedure: as §3, §4, §5
The next data set relates to erythrocytes. Nature of the data set: Red blood cell morphology (phase-contrast microscopy). The settings on record: 2% erythrocyte suspension, 37 °C, 1 h, phase contrast 400×. The class given is cell-based. The protocol:
Studies on erythrocyte morphology complement the erythrotoxicity studies because they provide information on potential immediate interactions of the tested compounds with the erythrocyte lipid bilayer, and the possibility of creating pathological forms of erythrocytes, which are not able to carry oxygen. The effects of the synthesized compounds, and the two reference compounds chromanone and flavanone, on the morphology of erythrocytes is shown in Figure 6. Briefly, 2% RBC suspension was incubated with 0.9% NaCl (control samples) or tested compounds at various concentrations corresponding to their activity towards cancer cell lines.
A 2% erythrocyte suspension was incubated at 37 °C for one hour with various concentrations of synthesized compounds. The morphology of the RBCs was examined by means of a phase contrast Opta-Tech inverted microscope, at 400× magnification, equipped with software (OptaView 7) for image analysis.

Consider 6 compounds from article PMC7180617, “Biological Evaluation of 3-Benzylidenechromanones and Their Spiropyrazolines-Based Analogues” (Molecules, 2020).

Some results are limits rather than exact numbers.

Regarding `COc1ccc(/C=C2\COc3ccccc3C2=O)cc1` [Compound 3, (E)-3-(4-methoxybenzylidene)chroman-4-one], the chromatographic logP (in general, a lipophilicity value derived from retention on a column) in [1] came to 4.08. Besides, in [2], the hemolysis at 1 h is no more than 5%. Also, the “effect on RBC hemolysis / erythrocyte membrane integrity (in words)” value in [3] is reported as “significant disintegration of the erythrocyte membrane at concentrations above 25 µM”. In addition, the IC50 (usually the concentration needed to halve the response being measured) was 30.1 ± 3.15 µM with NALM-6 cells (NALM-6, 48 h, MTT); 23.5 ± 1.71 µM in the data set with WM-115 cells; 45.4 ± 4.77 µM in the data set on HL-60 cells (HL-60, 48 h, MTT); 193 ± 2.9 µM in the data set with COLO-205 cells. Moreover, in the data set with erythrocytes, the “erythrocyte morphology (in words)” value is “echinocytes accounted for the major part of erythrocytes”.
For `COc1ccc(C2CN=NC23COc2ccccc2C3=O)cc1` (centres unmarked) [Compound 4, 4′-[(4-methoxy)phenyl]-4′,5′-dihydro-4H-spiro[chroman-3,3′-pirazol]-4-one], the melting point – broadly, the temperature of the solid-liquid transition – was 109 to 111.3 °C. This compound also yielded a chromatographic logP in [1] of 4.68. Moreover, the hemolysis at 1 h in [2] is no more than 5%. Besides, in data set [3], the “effect on RBC hemolysis / erythrocyte membrane integrity (in words)” value was “significant disintegration of the erythrocyte membrane at concentrations above 25 µM”. Also, the concentration for half-maximal inhibition (IC50) in the data set on NALM-6 cells (NALM-6, 48 h, MTT) was 72.6 ± 4.56 µM. The IC50 in the data set on WM-115 cells was 75.3 ± 4.89 µM. In addition, the half-maximal inhibitory concentration (IC50) with HL-60 cells (HL-60, 48 h, MTT) was 74 ± 1.85 µM. Also, the IC50 in the data set with COLO-205 cells worked out at 26.5 ± 1.8 µM. Also, the “erythrocyte morphology (in words)” value with erythrocytes is “echinocytes accounted for the major part of erythrocytes”.
In data set [1], `O=C1CCOc2ccccc21` [Compound 4-Chromanone, 4-Chromanone, reference compound] returned a chromatographic logP of 2.19. Moreover, in data set [3], the “effect on RBC hemolysis / erythrocyte membrane integrity (in words)” value was “Neither flavanone nor chromanone was found to have any unfavourable effect on the erythrocyte membrane over the whole concentration range”. In addition, the half-inhibitory concentration (IC50) is 674 ± 22.5 µM with NALM-6 cells (NALM-6, MTT); greater than 1000 µM with WM-115 cells; 677 ± 32.6 µM with HL-60 cells (HL-60, MTT); 721.5 ± 6.4 µM in the data set with COLO-205 cells. Moreover, in the data set with erythrocytes, the “erythrocyte morphology (in words)” value is on record as “echinocyte formation was observed”.
The compound `O=C1c2ccccc2OC(c2ccccc2)C12N=NCC2c1ccccc1` (centres unmarked) [Compound 6, 2′-phenylchromanone-3′-spiro-3,4-phenyl-1-pyrazoline] came in with a melting point of 126.5 to 127 °C. In data set [1], this compound registered a chromatographic logP of 5.88. For the same compound, in the data set on NALM-6 cells (NALM-6, 48 h, MTT), the IC50 came to 44.4 ± 6.3 µM. For the same compound, the IC50 in the data set with WM-115 cells was 57.4 ± 5.8 µM. In addition, the “fold lower cytotoxicity against HL-60 than compound 2” value in the data set with HL-60 cells (HL-60, compared with compound 2) is reported as “more than 330 fold”. Also, the IC50 with HL-60 cells (HL-60, 48 h, MTT) is greater than 1000 µM. For the same compound, the 50% inhibitory concentration (IC50) in the data set on COLO-205 cells was found to be 53.6 ± 1.6 µM. Further, the “erythrocyte morphology (in words)” value with erythrocytes is on record as “echinocytes accounted for the major part of erythrocytes”.
The compound `O=C1c2ccccc2OCC12N=NCC2c1ccccc1` (centres unmarked) [Compound 8, 4′-phenyl-4′,5′-dihydro-4H-spiro[chromano-3,3′-pirazol]-4-one] yielded a melting point of 141 to 142 °C. In data set [1], this compound returned a chromatographic logP of 2.35. Also, the “effect on RBC hemolysis / erythrocyte membrane integrity (in words)” value in [3] is “significantly greater disintegration of RBC membrane was reported at concentrations of 250 µM and 500 µM”. Further, the IC50 with NALM-6 cells (NALM-6, 48 h, MTT) worked out at 282 ± 49.4 µM. Moreover, in the data set with WM-115 cells, the 50% inhibitory concentration (IC50) turned out to be 415 ± 75.4 µM. Moreover, the 50% inhibitory concentration (IC50) in the data set with HL-60 cells (HL-60, 48 h, MTT) was 474 ± 29 µM. Further, the half-inhibitory concentration (IC50) in the data set with COLO-205 cells is greater than 1000 µM.
Take `O=C1CC(c2ccccc2)Oc2ccccc21` (centres unmarked) [flavanone, reference compound]: the “effect on RBC hemolysis / erythrocyte membrane integrity (in words)” value in [3] was “Neither flavanone nor chromanone was found to have any unfavourable effect on the erythrocyte membrane over the whole concentration range”. In addition, in the data set on erythrocytes, the “erythrocyte morphology (in words)” value is “echinocyte formation was observed”.
